From the supplement of paper PMC10307832

Columns and labels:
Test in all cases: relative viability (nuclei count vs DMSO), 5 days (fraction); higher = more cells survive
ChaGo-K-1 = tested on: ChaGo-K-1
In short: (§1)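 Lung cancer cell lines were pin-tool dosed in 1536-well plates on the day after seeding, with either a lone drug or a fixed anchor-drug dose plus five library-drug doses (not always all listed) in √10 steps. Nuclei were counted on 4× images after 5 days. Relative viability is the ratio of treated-well to vehicle-well nuclei counts, with each value a median of duplicate plates.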

EKVX = tested on: EKVX
In short: as §1

EMC-BAC-2 = tested on: EMC-BAC-2
In short: as §1

EPLC-272H = tested on: EPLC-272H
In short: as §1

HCC-78 = tested on: HCC-78
In short: as §1

HCC-827 = tested on: HCC-827
In short: as §1

LCLC-103H = tested on: LCLC-103H
In short: as §1

LK-2 = tested on: LK-2
In short: as §1

LU99A = tested on: LU99A
In short: as §1

NCI-H1666 = tested on: NCI-H1666
In short: as §1

NCI-H1975 = tested on: NCI-H1975
In short: as §1

NCI-H2126 = tested on: NCI-H2126
In short: as §1

NCI-H2342 = tested on: NCI-H2342
In short: as §1

NCI-H23 = tested on: NCI-H23
In short: as §1

NCI-H2405 = tested on: NCI-H2405
In short: as §1

NCI-H322M = tested on: NCI-H322M
In short: as §1

PC-14 = tested on: PC-14
In short: as §1

RERF-LC-KJ = tested on: RERF-LC-KJ
In short: as §1

SW 900 = tested on: SW 900
In short: as §1

`Cc1sc2c(c1C)C(c1ccc(Cl)cc1)=N[C@@H](CC(=O)OC(C)(C)C)c1nnc(C)n1-2` [JQ1] + NC(=O)Nc1cc(-c2cccc(F)c2)sc1C(=O)N[C@H]1CCCNC1 [AZD7762] (partner 0.2 µM) gave a relative viability (ChaGo-K-1; first compound 0.04 µM) of 0.875, a relative viability (ChaGo-K-1; first compound 0.1265 µM) of 0.89 and a relative viability (ChaGo-K-1; first compound 0.4 µM) of 0.899. It also gave a relative viability (ChaGo-K-1; first compound 1.265 µM) of 0.821, a relative viability (ChaGo-K-1; first compound 4 µM) of 0.536 and a relative viability (EKVX; first compound 0.04 µM) of 0.721. The relative viability (EKVX; first compound 0.1265 µM) was 0.794, the relative viability (EKVX; first compound 0.4 µM) was 1.03 and the relative viability (EKVX; first compound 1.265 µM) was 0.793. For the same compound, the relative viability (EKVX; first compound 4 µM) was 0.455, the relative viability (EMC-BAC-2; first compound 0.04 µM) was 1.08 and the relative viability (EMC-BAC-2; first compound 0.1265 µM) was 0.869. The relative viability (EMC-BAC-2; first compound 0.4 µM) was 0.975, the relative viability (EMC-BAC-2; first compound 1.265 µM) was 0.725 and the relative viability (EMC-BAC-2; first compound 4 µM) was 0.627. For the same compound, the relative viability (EPLC-272H; first compound 0.04 µM) was 0.244, the relative viability (EPLC-272H; first compound 0.1265 µM) was 0.122 and the relative viability (EPLC-272H; first compound 0.4 µM) was 0.355. For the same compound, the relative viability (EPLC-272H; first compound 1.265 µM) was 0.246, the relative viability (EPLC-272H; first compound 4 µM) was 0.214 and the relative viability (HCC-78; first compound 0.04 µM) was 0.762. It also gave a relative viability (HCC-78; first compound 0.1265 µM) of 0.574, a relative viability (HCC-78; first compound 0.4 µM) of 0.559 and a relative viability (HCC-78; first compound 1.265 µM) of 0.421. The relative viability (HCC-78; first compound 4 µM) was 0.208, the relative viability (HCC-827; first compound 0.04 µM) was 0.292 and the relative viability (HCC-827; first compound 0.1265 µM) was 0.266. The relative viability (HCC-827; first compound 1.265 µM) was 0.233, the relative viability (HCC-827; first compound 4 µM) was 0.277 and the relative viability (LCLC-103H; first compound 0.04 µM) was 0.778. The relative viability (LCLC-103H; first compound 0.1265 µM) was 0.713, the relative viability (LCLC-103H; first compound 0.4 µM) was 0.701 and the relative viability (LCLC-103H; first compound 1.265 µM) was 0.492. For the same compound, the relative viability (LCLC-103H; first compound 4 µM) was 0.438, the relative viability (LK-2; first compound 0.04 µM) was 0.464 and the relative viability (LK-2; first compound 0.1265 µM) was 0.388. It also gave a relative viability (LK-2; first compound 0.4 µM) of 0.229, a relative viability (LK-2; first compound 1.265 µM) of 0.101 and a relative viability (LK-2; first compound 4 µM) of 0.128. The relative viability (LU99A; first compound 0.04 µM) was 0.443, the relative viability (LU99A; first compound 0.4 µM) was 0.271 and the relative viability (LU99A; first compound 1.265 µM) was 0.165. The relative viability (LU99A; first compound 4 µM) was 0.172, the relative viability (NCI-H1666; first compound 0.04 µM) was 0.869 and the relative viability (NCI-H1666; first compound 0.1265 µM) was 0.793. It also gave a relative viability (NCI-H1666; first compound 0.4 µM) of 0.65, a relative viability (NCI-H1666; first compound 1.265 µM) of 0.48 and a relative viability (NCI-H1666; first compound 4 µM) of 0.488. The relative viability (NCI-H1975; first compound 0.04 µM) was 0.678, the relative viability (NCI-H1975; first compound 0.1265 µM) was 0.412 and the relative viability (NCI-H1975; first compound 0.4 µM) was 0.767. For the same compound, the relative viability (NCI-H1975; first compound 1.265 µM) was 0.526, the relative viability (NCI-H1975; first compound 4 µM) was 0.41 and the relative viability (NCI-H2126; first compound 0.04 µM) was 1.08. For the same compound, the relative viability (NCI-H2126; first compound 0.1265 µM) was 1.01, the relative viability (NCI-H2126; first compound 0.4 µM) was 1.04 and the relative viability (NCI-H2126; first compound 1.265 µM) was 0.956. For the same compound, the relative viability (NCI-H2126; first compound 4 µM) was 0.838, the relative viability (NCI-H2342; first compound 0.04 µM) was 0.544 and the relative viability (NCI-H2342; first compound 0.1265 µM) was 0.475. It also gave a relative viability (NCI-H2342; first compound 0.4 µM) of 0.588, a relative viability (NCI-H2342; first compound 1.265 µM) of 0.465 and a relative viability (NCI-H2342; first compound 4 µM) of 0.4. For the same compound, the relative viability (NCI-H23; first compound 0.04 µM) was 0.208, the relative viability (NCI-H23; first compound 0.1265 µM) was 0.21 and the relative viability (NCI-H23; first compound 0.4 µM) was 0.215. The relative viability (NCI-H23; first compound 1.265 µM) was 0.127, the relative viability (NCI-H23; first compound 4 µM) was 0.105 and the relative viability (NCI-H2405; first compound 0.04 µM) was 0.712. The relative viability (NCI-H2405; first compound 0.4 µM) was 0.646, the relative viability (NCI-H2405; first compound 1.265 µM) was 0.586 and the relative viability (NCI-H2405; first compound 4 µM) was 0.365. For the same compound, the relative viability (NCI-H322M; first compound 0.04 µM) was 0.532, the relative viability (NCI-H322M; first compound 0.1265 µM) was 0.534 and the relative viability (NCI-H322M; first compound 0.4 µM) was 0.44. The relative viability (NCI-H322M; first compound 1.265 µM) was 0.397, the relative viability (NCI-H322M; first compound 4 µM) was 0.437 and the relative viability (PC-14; first compound 0.04 µM) was 0.267. The relative viability (PC-14; first compound 0.1265 µM) was 0.259, the relative viability (PC-14; first compound 0.4 µM) was 0.207 and the relative viability (PC-14; first compound 1.265 µM) was 0.125. For the same compound, the relative viability (PC-14; first compound 4 µM) was 0.0805, the relative viability (RERF-LC-KJ; first compound 0.04 µM) was 1.02 and the relative viability (RERF-LC-KJ; first compound 0.1265 µM) was 0.803. It also gave a relative viability (RERF-LC-KJ; first compound 0.4 µM) of 0.976, a relative viability (RERF-LC-KJ; first compound 1.265 µM) of 0.816 and a relative viability (RERF-LC-KJ; first compound 4 µM) of 0.358. For the same compound, the relative viability (SW 900; first compound 0.04 µM) was 0.562, the relative viability (SW 900; first compound 0.1265 µM) was 0.556 and the relative viability (SW 900; first compound 0.4 µM) was 0.309. It also gave a relative viability (SW 900; first compound 1.265 µM) of 0.2 and a relative viability (SW 900; first compound 4 µM) of 0.147.
